Laboratory results published in US11490618B2, “Preservation compositions” (Conopco, Inc., priority 2018, dated 2022).

What was measured:
[1] = tested on: Pool 2 Gram negative fermenting bacteria: Enterobacter gergoviae & Klebsiella species; experiment: Liquid broth checkerboard assay (MIC, ΣFIC synergy), microorganism Pool 2; assay type: cell-based; conditions: tryptic soy broth, 30° C., 24 hours, ΣFIC<1 synergistic
Excerpt: (§1) The differing behaviours of inhibitory antimicrobials in isolation and mixtures have been widely explored using the concept of the Fractional Concentration and Fractional Inhibitory Concentration (FIC). See for instance J R W Lambert and R Lambert, J. Appl. Microbiol 95, 734 (2003); T. Jadavji, C G Prober and R Cheung, Antimicrobial Agents and Chemotherapy 26, 91 (1984), and WO 2004/006876. These parameters can be defined as follows: FC(component a)=Concentration of component a tested in the mixture/MIC(component a tested as a single active) FIC(component a)=MIC(component a tested in the mixture)/MIC(component a tested as a single active)
(§2) These relationships can be expressed mathematically by summing the fractional MIC values for all the components present in the mixture to give the “fractional inhibitory index”: ΣFIC=FIC(component 1)+FIC(component 2)
(§3) ΣFIC≥1 corresponds to additive or antagonistic activity
(§4) ΣFIC<1 corresponds to synergistic activity
(§5) Liquid broth assays (MIC and checkerboard) were conducted to identify the minimum concentration(s) of individual and binary combinations of preservation chemicals. A modified methodology to ISO 20776-1:2006 was utilised for the screening as follows. Stock solutions of preservation chemicals and tryptic soy broth were inoculated with 1-5×10^6 microorganisms and incubated at 30° C. for 24 hours, after which optical densities at OD600 nm were measured. […] Preservation chemicals were screened at a concentration range of 0.0156-2%.

[2] = tested on: Pool 1 Gram negative non-fermenting bacteria: Pseudomonas aeruginosa, Pseudomonas putida & Burkholderia cepacia; experiment: Liquid broth checkerboard assay (MIC, ΣFIC synergy), microorganism Pool 1; assay type: cell-based; conditions: tryptic soy broth, 30° C., 24 hours, ΣFIC<1 synergistic
Excerpt: as §1, §2, §3, §4, §5

[3] = binary combination with Citric Acid
[4] = binary combination with Itaconic acid

Structure (SMILES)	ΣFIC synergy score [1, 3]	ΣFIC synergy score [1, 4]	ΣFIC synergy score [2, 3]	ΣFIC synergy score [2, 4]
C=C(C)[C@@H]1CC=C(CO)CC1 [Perillyl alcohol]	0.5	0.38	0.38	0.38
CC(C)=CCC/C(C)=C/CO [Geraniol]	1.06	0.5	0.75	0.31
